# Test results from patent publication US9253983B2, “Triazole compound and use thereof” (KUREHA CORPORATION, priority 2011, dated 2016).
# Columns and labels:
# wheat = experiment: Growth inhibition (adverse effects) of seed treatment on wheat seeds; format: in vivo; settings: wheat, 20 days after sowing
# How it was run: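 Wheat seeds were treated with compound in DMSO at 2 g to 200 g ai/100 kg seeds, sown 8 per pot and kept in a greenhouse with bottom watering. Growth was scored 20 days after sowing as a growth inhibition index, lower meaning less adverse effect.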
# Phaeosphaeria nodorum = experiment: Test 1 for antifungal effect, plate medium: P.n; format: cell-based; settings: PDA plate medium
# How it was run: (§1)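 Readout: % mycelial growth inhibition, R=100(dc−dt)/dc, from colony diameters on treated (dt) vs compound-free (dc) PDA plates. Compound was added in DMSO to molten PDA (~60° C); 4 mm plugs incubated 1–7 days at optimum growth temperature.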
# Fusarium oxysporum = experiment: Test 2 for antifungal effect, plate medium: F.c; format: cell-based; settings: PDA plate medium
# How it was run: (§2)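 Compound in DMSO was mixed into PDA medium at about 60° C to make plates at a set concentration. These were inoculated with 4 mm mycelial plugs and grown 1–7 days at each pathogen's optimum temperature. Colony diameter was compared with compound-free plates to give growth inhibition, rated on a 1–5 scale.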
# Penicillium italicum = experiment: Test 2 for antifungal effect, plate medium: P.i; format: cell-based; settings: PDA plate medium
# How it was run: as §2
# Sclerotinia sclerotiorum = experiment: Test 1 for antifungal effect, plate medium: S.s; format: cell-based; settings: PDA plate medium
# How it was run: as §1
# Microdochium nivale = experiment: Test 1 for antifungal effect, plate medium: M.n; format: cell-based; settings: PDA plate medium
# How it was run: as §1
# Puccinia recondita = experiment: Efficacy of seed treatment on wheat brown rust; format: in vivo; settings: wheat seed treatment 20 g ai/100 kg seeds, 12 days after inoculation
# Description: A pot experiment was performed to evaluate the efficacy of seed treatment in controlling wheat leaf rust. Compound (1-1a) and Compound (1-2a), each of which was dissolved in DMSO to make up such a concentration that the seeds would be treated in treatment amount of 20 g ai/100 kg seeds, were each applied to wheat seeds in a vial, and thereafter 8 wheat seeds were sowed on an 80-cm^2 pot. The pot was kept in a greenhouse with water supplied to its bottom. 21 days after the sowing, the wheat seeds were inoculated with Puccinia recondita, and kept in a wet box for 2 days. After that, the pot was again kept in the greenhouse with water supplied to its bottom. 12 days after the inoculation, the percentage of affected area was found, and the protective value was calculated by the following equation. Protective value (%)=(1−(Percentage of affected area in treated region/Percentage of affected area in untreated region))×100
# Ustilago nuda = experiment: Test 2 for antifungal effect, plate medium: U.n; format: cell-based; settings: PDA plate medium
# How it was run: as §2
# Gaeumannomyces graminis = experiment: Test 1 for antifungal effect, plate medium: G.g; format: cell-based; settings: PDA plate medium
# How it was run: as §1
# Septoria tritici = experiment: Test 2 for antifungal effect, plate medium: S.t; format: cell-based; settings: PDA plate medium
# How it was run: as §2
# Gibberella fujikuroi = experiment: Test 1 for antifungal effect, plate medium: G.f; format: cell-based; settings: PDA plate medium
# How it was run: as §1
smiles,measurement,setting,value
"CC1(CCl)CCC(Cc2ccc(F)cc2)C1(O)Cn1cncn1 (single isomer, unassigned) [Compound (1-2a), (1,2-cis, 1,5-cis)-5-(4-fluorobenzyl)-2-chloromethyl-2-methyl-1-(1H-1,2,4-triazole-1-ylmethyl)cyclopentanol]",Growth inhibition index,wheat; treatment amount 2 g ai/100 kg seeds,0 (50% or more)
same,Growth inhibition index,wheat; treatment amount 20 g ai/100 kg seeds,0 (50% or more)
same,Growth inhibition index,wheat; treatment amount 200 g ai/100 kg seeds,2 (Less than 40% but 30% or more)
same,Antifungal index (mycelial growth inhibition rate),Phaeosphaeria nodorum; 0.16 mg/L,1 (Less than 60%)
same,Antifungal index (mycelial growth inhibition rate),Phaeosphaeria nodorum; 0.31 mg/L,2 (Less than 70% but not less than 60%)
same,Antifungal index (mycelial growth inhibition rate),Phaeosphaeria nodorum; 0.63 mg/L,5 (90% or greater)
same,Antifungal index (mycelial growth inhibition rate),Phaeosphaeria nodorum; 1.25 mg/L,5 (90% or greater)
same,Antifungal index (mycelial growth inhibition rate),Phaeosphaeria nodorum; 2.50 mg/L,5 (90% or greater)
same,Antifungal index (mycelial growth inhibition rate),Fusarium oxysporum; 0.04 mg/L,1 (Less than 60%)
same,Antifungal index (mycelial growth inhibition rate),Fusarium oxysporum; 0.08 mg/L,1 (Less than 60%)
same,Antifungal index (mycelial growth inhibition rate),Fusarium oxysporum; 0.16 mg/L,2 (Less than 70% but not less than 60%)
same,Antifungal index (mycelial growth inhibition rate),Fusarium oxysporum; 0.31 mg/L,3 (Less than 80% but not less than 70%)
same,Antifungal index (mycelial growth inhibition rate),Fusarium oxysporum; 0.63 mg/L,4 (Less than 90% but not less than 80%)
same,Antifungal index (mycelial growth inhibition rate),Fusarium oxysporum; 1.25 mg/L,5 (90% or greater)
same,Antifungal index (mycelial growth inhibition rate),Penicillium italicum; 0.04 mg/L,1 (Less than 60%)
same,Antifungal index (mycelial growth inhibition rate),Penicillium italicum; 0.08 mg/L,1 (Less than 60%)
same,Antifungal index (mycelial growth inhibition rate),Penicillium italicum; 0.16 mg/L,3 (Less than 80% but not less than 70%)
same,Antifungal index (mycelial growth inhibition rate),Penicillium italicum; 0.31 mg/L,4 (Less than 90% but not less than 80%)
same,Antifungal index (mycelial growth inhibition rate),Penicillium italicum; 0.63 mg/L,5 (90% or greater)
same,Antifungal index (mycelial growth inhibition rate),Penicillium italicum; 1.25 mg/L,5 (90% or greater)
same,Antifungal index (mycelial growth inhibition rate),Sclerotinia sclerotiorum; 0.16 mg/L,5 (90% or greater)
same,Antifungal index (mycelial growth inhibition rate),Sclerotinia sclerotiorum; 0.31 mg/L,5 (90% or greater)
same,Antifungal index (mycelial growth inhibition rate),Sclerotinia sclerotiorum; 0.63 mg/L,5 (90% or greater)
same,Antifungal index (mycelial growth inhibition rate),Sclerotinia sclerotiorum; 1.25 mg/L,5 (90% or greater)
same,Antifungal index (mycelial growth inhibition rate),Sclerotinia sclerotiorum; 2.50 mg/L,5 (90% or greater)
same,Antifungal index (mycelial growth inhibition rate),Microdochium nivale; 0.16 mg/L,1 (Less than 60%)
same,Antifungal index (mycelial growth inhibition rate),Microdochium nivale; 0.31 mg/L,1 (Less than 60%)
same,Antifungal index (mycelial growth inhibition rate),Microdochium nivale; 0.63 mg/L,2 (Less than 70% but not less than 60%)
same,Antifungal index (mycelial growth inhibition rate),Microdochium nivale; 1.25 mg/L,3 (Less than 80% but not less than 70%)
same,Antifungal index (mycelial growth inhibition rate),Microdochium nivale; 2.50 mg/L,5 (90% or greater)
same,Protective value (%),Puccinia recondita,100%
same,Antifungal index (mycelial growth inhibition rate),Ustilago nuda; 0.04 mg/L,1 (Less than 60%)
same,Antifungal index (mycelial growth inhibition rate),Ustilago nuda; 0.08 mg/L,1 (Less than 60%)
same,Antifungal index (mycelial growth inhibition rate),Ustilago nuda; 0.16 mg/L,1 (Less than 60%)
same,Antifungal index (mycelial growth inhibition rate),Ustilago nuda; 0.31 mg/L,1 (Less than 60%)
same,Antifungal index (mycelial growth inhibition rate),Ustilago nuda; 0.63 mg/L,1 (Less than 60%)
same,Antifungal index (mycelial growth inhibition rate),Ustilago nuda; 1.25 mg/L,2 (Less than 70% but not less than 60%)
same,Antifungal index (mycelial growth inhibition rate),Gaeumannomyces graminis; 0.16 mg/L,1 (Less than 60%)
same,Antifungal index (mycelial growth inhibition rate),Gaeumannomyces graminis; 0.31 mg/L,4 (Less than 90% but not less than 80%)
same,Antifungal index (mycelial growth inhibition rate),Gaeumannomyces graminis; 0.63 mg/L,5 (90% or greater)
same,Antifungal index (mycelial growth inhibition rate),Gaeumannomyces graminis; 1.25 mg/L,5 (90% or greater)
same,Antifungal index (mycelial growth inhibition rate),Gaeumannomyces graminis; 2.50 mg/L,5 (90% or greater)
same,Antifungal index (mycelial growth inhibition rate),Septoria tritici; 0.04 mg/L,1 (Less than 60%)
same,Antifungal index (mycelial growth inhibition rate),Septoria tritici; 0.08 mg/L,1 (Less than 60%)
same,Antifungal index (mycelial growth inhibition rate),Septoria tritici; 0.16 mg/L,1 (Less than 60%)
same,Antifungal index (mycelial growth inhibition rate),Septoria tritici; 0.31 mg/L,1 (Less than 60%)
same,Antifungal index (mycelial growth inhibition rate),Septoria tritici; 0.63 mg/L,1 (Less than 60%)
same,Antifungal index (mycelial growth inhibition rate),Septoria tritici; 1.25 mg/L,3 (Less than 80% but not less than 70%)
same,Antifungal index (mycelial growth inhibition rate),Gibberella fujikuroi; 0.16 mg/L,4 (Less than 90% but not less than 80%)
same,Antifungal index (mycelial growth inhibition rate),Gibberella fujikuroi; 0.31 mg/L,5 (90% or greater)
same,Antifungal index (mycelial growth inhibition rate),Gibberella fujikuroi; 0.63 mg/L,5 (90% or greater)
same,Antifungal index (mycelial growth inhibition rate),Gibberella fujikuroi; 1.25 mg/L,5 (90% or greater)
same,Antifungal index (mycelial growth inhibition rate),Gibberella fujikuroi; 2.50 mg/L,5 (90% or greater)
